Test results taken from ChEMBL document CHEMBL5137132, “Ulleungdolin, a Polyketide-Peptide Hybrid Bearing a 2,4-Di-O-methyl-β-d-antiarose from Streptomyces sp. 13F051 Co-cultured with Leohumicola minima 15S071” (2022).

Key:
MDA-MB-231 [1] = assay: Anti-migration activity against human MDA-MB-231 cells assessed as inhibition of cell migration at 10 uM incubated for 18 hrs by wound healing assay; assay type: functional
MDA-MB-231 [2] = assay: Anti-migration activity against human MDA-MB-231 cells assessed as inhibition of cell migration at 25 uM incubated for 18 hrs by wound healing assay; assay type: functional

CO[C@@H]1[C@@H](O)[C@@H](OC)[C@H](Oc2cccc3c2C(=O)N([C@@]2(C(=O)N[C@H](C(=O)N[C@H](C(=O)O)c4ccc(O)cc4)[C@H](O)CC(N)=O)C[C@@H]2C)[C@H]3CCCCCCCC(=O)O)O[C@@H]1C
inhibition at 10 µM (MDA-MB-231 [1]): 42% | inhibition at 25 µM (MDA-MB-231 [2]): 100%
